Patent publication US20080190575A1, “Lignocellulosic Composite Material and Method for Preparing the Same” (priority 2004, published 2008)

Assay: Dissolvability of insecticide in solvent
Type: physicochemical
Description: It has been determined that certain polar solvents are capable of dissolving at least 10 grams of the insecticide per liter of solvent. For example, it has also been determined that water is not a sufficient polar solvent for certain insecticides, such as fipronil, because it is capable of only dissolving 2.4 milligrams per liter of water. Generally, these polar solvents that are capable of dissolving at least 10 grams of the insecticide per liter are selected from at least one of an alcohol, a ketone, and an ester. More preferably, the polar solvent is selected from the group of octyl alcohol, isopropyl alcohol, methyl alcohol, acetone, carpryl alcohol, propylene carbonate, gamma-butyrolactone, 3-pentanone, 1-methyl-2-pyrrolidinone, and combinations thereof.
In Examples 1 and 2, the lignocellulosic composite material was formed having a thickness of 0.437 inches with a density of about 39 lb/ft^3. […] The fipronil was present in an amount of about 150 PPM based on the dry weight of the lignocellulosic particles. In Example 2, 0.28 grams of fipronil were dissolved in 1.00 grams of the polar solvent to form the insecticide solution. The fipronil was present in an amount of about 30 PPM based on the dry weight of the lignocellulosic particles. The polar solvent was 1-methyl-2-pyrrolidinone (NMP). NMP is capable of dissolving about 289 grams of fipronil per liter of NMP.
In Examples 3 and 4, the lignocellulosic composite material was formed having a thickness of 0.719 inches with a density of about 40 lb/ft^3. In Example 3, 1.15 grams of fipronil were dissolved in 5 grams of the polar solvent to form the insecticide solution. The fipronil was present in an amount of about 50 PPM based on the dry weight of the lignocellulosic particles. […] The fipronil was present in an amount of about 100 PPM based on the dry weight of the lignocellulosic particles. The polar solvent in Examples 3 and 4 was 3-pentanone, which is capable of dissolving about 326 grams of fipronil per liter of 3-pentanone.

N#Cc1nn(-c2c(Cl)cc(C(F)(F)F)cc2Cl)c(N)c1[S+]([O-])C(F)(F)F (stereo not drawn) [fipronil, 5-amino-1-(2,6-dichloro-4-(trifluoromethyl)phenyl)-4-((trifluoromethyl)sulfinyl)-1H-pyrazole-3-carbonitrile]
amount dissolved per liter of NMP (solvent 1-methyl-2-pyrrolidinone (NMP)): about 289 grams per liter
amount dissolved per liter of 3-pentanone (solvent 3-pentanone): about 326 grams per liter
amount dissolved per liter of water (solvent water): 2.4 milligrams per liter
